Assay results taken from patent US4546096A, “Anticholinergic glucuronides and antiperspirant use thereof” (Repligen Corporation, priority 1984, dated 1985).

Legend:
E. coli β-glucuronidase = E. coli β-glucuronidase (Escherichia coli, UniProt P05804); experiment: Hydrolysis of glucuronides by E. coli β-glucuronidase; format: biochemical; conditions: pH 6.8; for Hydrolysis of Glucuronides: E. coli enzyme, initial rate, enzyme diluted so that PGA rates are equivalent
[1] = biological target: T1, bovine liver β-glucuronidase (Bos taurus, UniProt A3KMY8); experiment: Hydrolysis of glucuronides by bovine liver β-glucuronidase; format: biochemical; conditions: bovine liver enzyme, pH 5.0; initial rate; enzyme diluted so that PGA rates are equivalent
T1 sequence (A3KMY8 24-652): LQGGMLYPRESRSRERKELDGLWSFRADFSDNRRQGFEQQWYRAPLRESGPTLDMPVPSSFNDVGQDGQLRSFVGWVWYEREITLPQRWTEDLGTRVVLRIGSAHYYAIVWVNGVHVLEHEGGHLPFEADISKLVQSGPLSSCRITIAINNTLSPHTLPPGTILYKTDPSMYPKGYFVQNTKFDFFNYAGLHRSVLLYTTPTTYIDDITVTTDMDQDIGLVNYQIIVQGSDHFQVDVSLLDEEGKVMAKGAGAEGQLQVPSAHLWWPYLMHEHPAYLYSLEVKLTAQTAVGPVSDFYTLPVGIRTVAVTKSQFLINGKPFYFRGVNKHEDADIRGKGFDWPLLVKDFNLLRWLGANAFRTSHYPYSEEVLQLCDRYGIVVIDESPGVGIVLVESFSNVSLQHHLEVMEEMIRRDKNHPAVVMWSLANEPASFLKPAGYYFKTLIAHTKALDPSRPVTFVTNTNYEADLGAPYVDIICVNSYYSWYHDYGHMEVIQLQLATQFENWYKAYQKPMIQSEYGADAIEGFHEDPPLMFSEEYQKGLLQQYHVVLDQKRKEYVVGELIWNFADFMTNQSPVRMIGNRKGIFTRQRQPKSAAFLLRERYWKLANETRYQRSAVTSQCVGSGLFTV

[2] = biological target: T2, human sweat β-glucuronidase (Homo sapiens, UniProt P08236); experiment: Hydrolysis of model glucuronides by human sweat glucuronidase; format: biochemical; conditions: for Hydrolysis of Glucuronides: dialyzed human sweat, initial rate, enzyme diluted so that PGA rates are equivalent
T2 sequence (P08236 23-651): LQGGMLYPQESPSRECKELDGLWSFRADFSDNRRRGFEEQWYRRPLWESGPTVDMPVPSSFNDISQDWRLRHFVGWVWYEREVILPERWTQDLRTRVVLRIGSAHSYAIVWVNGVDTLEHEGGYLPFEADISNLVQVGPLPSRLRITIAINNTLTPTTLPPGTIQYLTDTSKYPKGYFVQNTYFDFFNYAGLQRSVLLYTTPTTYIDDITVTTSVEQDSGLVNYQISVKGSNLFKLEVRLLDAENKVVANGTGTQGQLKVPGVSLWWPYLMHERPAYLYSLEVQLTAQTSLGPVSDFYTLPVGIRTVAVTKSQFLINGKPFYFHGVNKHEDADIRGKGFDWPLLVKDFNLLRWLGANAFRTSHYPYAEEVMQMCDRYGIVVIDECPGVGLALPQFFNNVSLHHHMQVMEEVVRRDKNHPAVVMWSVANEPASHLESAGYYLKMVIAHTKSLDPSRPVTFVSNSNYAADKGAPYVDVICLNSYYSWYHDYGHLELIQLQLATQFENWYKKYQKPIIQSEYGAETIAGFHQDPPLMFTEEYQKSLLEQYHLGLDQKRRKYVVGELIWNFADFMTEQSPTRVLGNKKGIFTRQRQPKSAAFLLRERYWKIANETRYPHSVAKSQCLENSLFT
Protocol: Sweat was obtained from human volunteers by collection from the axilla during high temperature (>41° C.) in a sauna. The sweat was clarified by centrifugation at 20,000 g for 30 min. This clarified sweat was then either utilized directly in hydrolysis studies or dialyzed against 100 mM NaCl, 50 mM sodium acetate, pH 5.0 prior to use. […] Most of the data presented herein was generated with dialyzed preparations.
β-glucuronidase activity was assayed in the sweat by hydrolysis of phenolphthalein glucuronide. Briefly, this assay was carried out as follows: to an aliquot of undialyzed sweat was added an equal volume of buffer comprising 100 mM NaCl, 100 mM sodium acetate, pH 5.0 (this step was unnecessary when assaying dialyzed sweat) followed by 10 μl of a 100 mg/ml phenolphthalein glucuronide solution (Sigma Chemical, St. Louis, Mo.). The reaction mixture was then incubated at 37° C. After 30 min an aliquot of the reaction mixture was added to a five-fold excess of a 0.2 M glycine buffer, pH 10.4 and the absorbance wa determined at 540 nm. The activity was determined by comparison to a known amount of E. coli β-glucuronidase (Sigma, Type VII) run under standard conditions.
A variety of glucuronides were synthesized and tested for their ability to be hydrolyzed by human sweat glucuronidase. […] These hydrolysis reactions were all carried out under similar conditions, and the extent of hydrolysis was determined at the various time points by HPLC analysis of the reaction mixture.
Generally, dialyzed preparations of sweat were used for the reasons discussed earlier. […] A typical experiment was done by bringing the enzyme solution (50-100 U/ml) to 0.01 to 0.05% in the glucuronide to be tested. A zero time aliquot was withdrawn and stored frozen; the remaining reaction mixture was incubated at 37° C. Aliquots were taken at various time points for rate determinations. These aliquots were stored at -20° C. until analysis by HPLC.
High pressure liquid chromatography of the aliquots drawn from the hydrolysis reactions allowed the separation of the aglycon from the glucuronide in all cases. The nmoles released at any given time were calculated from the absorption at 254 nm and the known extinction coefficient of the compound. Rates are given as initial rates which are determined by plotting nmoles aglycon vs. time.

rabbit eye pupil = experiment: Mydriasis assay (rabbit eye pupil diameter); format: in vivo; conditions: for Change in Pupil Diameter as a function of time: error ± 0.5 mm; for mydriatic potency compared to the parent drugs: compared to parent drugs tropicamide and scopolamine
Protocol: The rabbit eye pupil diameter was measured with a clear plastic ruler after exposing the eye to 50 W light at a distance of 6 in. Exposure to light contracts the pupil to approximately 3 mm diameter.
The addition of the compounds to be tested is done in a maximum volume of 150 μl, in 50 mM NaPO4, pH 6.8, 100 mM NaCl. The sample was applied in the upper corner of the eye and was allowed to completely cover the cornea after each addition. Pupil dilation was measured at 3 separate intervals following the procedure outlined above. Buffer controls were run in one eye and the anticholinergic in the other.

[3] = Solubility of aglycon in the enzymatic reaction mixture; format: physicochemical; conditions: aqueous tris hydrochloride reaction mixture
Protocol: Due to the low solubility of this compound, excess solid material is added to the reaction mixture so that a saturated solution of aglycon is maintained throughout the reaction. The glucuronide is isolated by HPLC with the reversed phase system described in Example 2. It is characterized by hydrolysis with excess E. coli β-glucuronidase (1000 U/ml, pH 6.8) (Sigma, Type […]) for 1 hr at 37° C. which quantitatively releases the aglycon as assayed by HPLC.
The glucuronide of scopolamine p-hydroxybenzoate is synthesized with uridine 5'-diphosphoglucuronic acid transferase by first removing all or substantially all of the esterase activity from liver microsomes. These esterases are removed since they will hydrolyze the aglycon. This operation can be done by washing the liver microsomes in a suitable buffer, as described herein, or by other equivalent washing means known to persons in this art. Advantageously, an esterase inhibitor can be used to supplement the washing of the microsomes. For example, a competitive inhibitor of the esterases such as lysine ethyl ester, and the like, or a suicide substrate such as phenylmethylsulfonyl fluoride, and the like, can be used. […] The glucuronide is characterized by hydrolysis with excess E. coli β-glucuronidase (100 U/ml, pH 6.8) (Sigma, Type VII) for 1 hr at 37° C. which quantitatively releases the aglycon as assayed by HPLC.

[4] = levels 100-fold greater than required to effect a strong mydriatic response with the aglycon

Chain of E. coli β-glucuronidase (P05804 whole entry): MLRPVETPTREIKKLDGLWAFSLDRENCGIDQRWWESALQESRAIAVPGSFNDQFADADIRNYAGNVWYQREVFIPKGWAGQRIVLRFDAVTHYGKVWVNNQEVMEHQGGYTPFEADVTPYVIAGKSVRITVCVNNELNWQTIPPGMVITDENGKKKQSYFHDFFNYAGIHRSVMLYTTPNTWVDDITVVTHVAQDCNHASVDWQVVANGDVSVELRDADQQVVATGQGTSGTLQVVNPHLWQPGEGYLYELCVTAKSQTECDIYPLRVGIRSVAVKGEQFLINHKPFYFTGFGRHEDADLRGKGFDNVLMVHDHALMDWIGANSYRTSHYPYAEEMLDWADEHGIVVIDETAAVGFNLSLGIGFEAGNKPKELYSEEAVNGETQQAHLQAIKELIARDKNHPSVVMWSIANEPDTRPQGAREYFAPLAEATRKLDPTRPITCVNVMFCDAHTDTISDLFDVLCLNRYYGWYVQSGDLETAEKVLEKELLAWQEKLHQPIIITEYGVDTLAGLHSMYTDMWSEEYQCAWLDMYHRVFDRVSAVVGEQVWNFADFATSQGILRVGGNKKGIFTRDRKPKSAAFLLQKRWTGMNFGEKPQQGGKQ

For `O=C1OC(c2ccc(O)cc2)(c2ccc(O[C@@H]3O[C@H](C(=O)O)[C@@H](O)[C@H](O)[C@H]3O)cc2)c2ccccc21` (stereo partly shown) [Phenolphthalein glucuronide, phenolphthalein glucuronide], the “Hydrolysis of Glucuronides” value (E. coli β-glucuronidase) was 200 nmoles/hour/100 units, the “Hydrolysis of Glucuronides” value [1] was 200 nmoles/hour/100 units and the “Hydrolysis of Glucuronides” value ([2]; pH 5.0) was 200 nmoles/hour/100 units.

In the case of `CN1C2CC(OC(=O)C(COC3OC(C(=O)O)C(O)C(O)C3O)c3ccccc3)CC1C1OC12` [Scopolamine glucuronide, scopolamine O-β-D-glucuronide], the “Hydrolysis of Glucuronides” value (E. coli β-glucuronidase) is reported as 60 nmoles/hour/100 units, the “Hydrolysis by E. coli enzyme (in words)” value (E. coli β-glucuronidase) is reported as “lower, but significant, activity” and the “Hydrolysis of Glucuronides” value [1] is reported as 25 nmoles/hour/100 units. The “Hydrolysis of Glucuronides” value ([2]; pH 5.0) was under 0.5 nmoles/hour/100 units, the “Hydrolysis by human sweat enzyme (in words)” value ([2]; pH 5.0) was “no scopolamine could be detected” and the “Hydrolysis by human sweat enzyme (in words)” value ([2]; pH 6.8) was “no hydrolysis”.

With `CN1C2CC(OC(=O)C(COC(=O)c3ccc(OC4OC(C(=O)O)C(O)C(O)C4O)cc3)c3ccccc3)CC1C1OC12` [Scopolamine p-Hydroxybenzoy-O-β-D-Glucuronic Acid] the “Hydrolysis of Glucuronides” value ([2]; pH 5.0) was 40 nmoles/hour/100 units, the “Change in Pupil Diameter as a function of time” value (shortened to “Change in Pupil Diameter”) (rabbit eye pupil; 11.4 ug applied, in 45 min) was 0 mm and the “mydriatic response (in words)” value (rabbit eye pupil; [4]) was “No mydriatic response”.

In the case of `CN1C2CC(OC(=O)C(COC(=O)c3ccc(O)cc3)c3ccccc3)CC1C1OC12` (stereo not shown) [Scopolamine p-hydroxybenzoate, Scopolamine p-Hydroxybenzoate], the “mydriatic response (in words)” value (rabbit eye pupil; 0.1 μg) is reported as “sufficient for a response”, the “Change in Pupil Diameter” value (rabbit eye pupil; 0.1 ug applied, in 15 min) is reported as 7 mm and the “mydriatic potency compared to the parent drugs” value (rabbit eye pupil) is reported as “potent mydriatic agents”. The solubility [3] was “low”.

For `CN1[C@@H]2C[C@@H](OC(=O)[C@H](CO)c3ccccc3)C[C@H]1[C@@H]1O[C@@H]12` [Scopolamine], the “mydriatic response (in words)” value (rabbit eye pupil; 0.6 μg) was “nonmydriatic”, the “Change in Pupil Diameter” value (rabbit eye pupil; 0.6 ug applied, in 15 min) was 0 mm and the “Change in Pupil Diameter” value (rabbit eye pupil; 6 ug applied, in 15 min) was 6 mm. For the same compound, the “Change in Pupil Diameter” value (rabbit eye pupil; 60 ug applied, in 10 min) was 6 mm.

In the case of `COC(=O)C(CO[C@@H]1O[C@H](C(=O)O)[C@@H](O)[C@H](O)[C@H]1O)c1ccccc1` (stereo partly drawn) [Tropic acid methyl ester glucuronide, Tropic Acid Methyl Ester-O-β-D-Glucuronide], the “Hydrolysis of Glucuronides” value ([2]; pH 5.0) is reported as 2.6 nmoles/hour/100 units.

With `CCN(Cc1ccncc1)C(=O)C(CO[C@@H]1O[C@H](C(=O)O)[C@@H](O)[C@H](O)[C@H]1O)c1ccccc1` (stereo partly drawn) [Tropicamide glucuronide, tropicamide O-β-D-glucuronide] the “Hydrolysis of Glucuronides” value (E. coli β-glucuronidase) was over 150 nmoles/hour/100 units, the “Hydrolysis by E. coli enzyme (in words)” value (E. coli β-glucuronidase) was “rapidly hydrolyzes” and the “Hydrolysis of Glucuronides” value [1] was 24 nmoles/hour/100 units. For the same compound, the “Hydrolysis of Glucuronides” value ([2]; pH 5.0) was 1.6 nmoles/hour/100 units, the “Hydrolysis by human sweat enzyme (in words)” value ([2]; pH 5.0) was “Trace amounts” and the “Hydrolysis by human sweat enzyme (in words)” value ([2]; pH 6.8) was “no hydrolysis”. The “Change in Pupil Diameter” value (rabbit eye pupil; 600 ug applied, in 30 min) was 0 mm.

For `CCN(Cc1ccncc1)C(=O)C(COC(=O)c1ccc(O[C@@H]2O[C@H](C(=O)O)[C@@H](O)[C@H](O)[C@H]2O)cc1)c1ccccc1` (stereo partly drawn) [Tropicamide p-Hydroxybenzoyl-O-β-D-Glucuronic Acid], the “Hydrolysis of Glucuronides” value ([2]; pH 5.0) was 36 nmoles/hour/100 units, the “Change in Pupil Diameter” value (rabbit eye pupil; 600 ug applied, in 25 min) was 0 mm and the “mydriatic response (in words)” value (rabbit eye pupil; [4]) was “No mydriatic response”.

For `CCN(Cc1ccncc1)C(=O)C(COC(=O)c1ccc(O)cc1)c1ccccc1` (stereo not shown) [Tropicamide p-hydroxybenzoate, tropicamide p-hydroxybenzoate], the “mydriatic response (in words)” value (rabbit eye pupil; 5.5 μg) was “clearly mydriatic”, the “Change in Pupil Diameter” value (rabbit eye pupil; 5.5 ug applied, in 35 min) was 4 mm and the “mydriatic potency compared to the parent drugs” value (rabbit eye pupil) was “potent mydriatic agents”. The solubility [3] was “low”.

For `CCN(Cc1ccncc1)C(=O)C(CO)c1ccccc1` (stereo not shown) [Tropicamide], the “mydriatic response (in words)” value (rabbit eye pupil; 20 μg) was “weak response”.

In the case of `COC(=O)Cc1ccc(O[C@@H]2O[C@H](C(=O)O)[C@@H](O)[C@H](O)[C@H]2O)cc1` [p-Hydroxyphenylacetic Acid Methyl Ester-O-β-D-Glucuronide], the “Hydrolysis of Glucuronides” value ([2]; pH 5.0) is reported as 37 nmoles/hour/100 units.
